Laboratory results as given in US9688691B2, “Macrocyclic quinazole derivatives and their use as MTKI” (Janssen Pharmaceutica NV, priority 2004, dated 2017).

Target: CDK5/p35 human (Homo sapiens, UniProt Q00535)
Test: Kinase profiling, glass-fiber filter technology: CDK5/p35
Type: biochemical
Conditions: test concentration of 10^−6 M; read-out: CDK5/p35 inhibition score
Protocol: (§1) The in vitro inhibition of a panel of kinases was assessed using the glass-fiber filter technology as described by Davies, S. P. et al., Biochem J. (2000), 351; p. 95-105.
(§2) In the glass-fiber filter technology the activity of the kinase of interest is measured using an appropriate substrate that is incubated with the aforementioned kinase protein in the presence of (^33P) radiolabeled ATP. (^33P) Phosporylation of the substrate is subsequently measured as radioactivity bound on a glassfiber-filter.
(§3) All kinases are pre-diluted to a 10× working concentration prior to addition into the assay. The composition of the dilution buffer for each kinase is detailed below.
(§4) All substrates are dissolved and diluted to working stocks in de-ionised water.
(§5) In a final reaction volume of 25 μl, CDK5/p35 human (5-10 mU) is incubated with 8 mM MOPS pH 7.0, 0.2 mM EDTA, 0.1 mg/ml histone H1, 10 mM MgAcetate and [γ-^33P-ATP] (specific activity approx. 500 cpm/pmol, concentration as required). The reaction is initiated by the addition of the MgATP mix. After incubation for 40 minutes at room temperature, the reaction is stopped by the addition of 5 μl of a 3% phosphoric acid solution. 10 μl of the reaction is then spotted onto a P30 filtermat and washed three times for 5 minutes in 75 mM phosphoric acid and once in methanol prior to drying and scintillation counting.

Sequence of CDK5/p35 human (Q00535 whole entry): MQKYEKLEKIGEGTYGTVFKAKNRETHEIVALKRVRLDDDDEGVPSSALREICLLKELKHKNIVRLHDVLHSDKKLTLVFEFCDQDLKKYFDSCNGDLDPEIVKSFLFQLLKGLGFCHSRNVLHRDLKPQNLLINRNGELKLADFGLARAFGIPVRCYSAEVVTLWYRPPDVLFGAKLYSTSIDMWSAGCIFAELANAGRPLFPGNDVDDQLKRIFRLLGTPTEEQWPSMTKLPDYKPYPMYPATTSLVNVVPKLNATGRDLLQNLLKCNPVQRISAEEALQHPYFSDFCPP
Sequence of CDK5/p35 human (Q15078 whole entry partner): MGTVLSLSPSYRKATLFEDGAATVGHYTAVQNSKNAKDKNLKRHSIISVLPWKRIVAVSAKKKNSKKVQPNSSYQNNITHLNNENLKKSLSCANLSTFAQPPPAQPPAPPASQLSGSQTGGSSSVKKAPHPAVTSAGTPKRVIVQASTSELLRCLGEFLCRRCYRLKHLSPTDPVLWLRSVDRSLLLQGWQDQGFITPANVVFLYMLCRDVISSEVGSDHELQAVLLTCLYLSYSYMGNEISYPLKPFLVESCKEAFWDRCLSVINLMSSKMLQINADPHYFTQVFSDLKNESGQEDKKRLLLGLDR

| inhibition at 1 µM [%] | SMILES |
| --- | --- |
| 10 to 30 | COc1cc2ncnc3c2cc1OCCCN(CCN1CCOCC1)C(=O)CNC(=O)Cc1ccc(Cl)cc1N3 [Compound 15] |

Target: CDK6/cyclinD3 human (Homo sapiens, UniProt Q00534)
Sequence (Q00534 whole entry): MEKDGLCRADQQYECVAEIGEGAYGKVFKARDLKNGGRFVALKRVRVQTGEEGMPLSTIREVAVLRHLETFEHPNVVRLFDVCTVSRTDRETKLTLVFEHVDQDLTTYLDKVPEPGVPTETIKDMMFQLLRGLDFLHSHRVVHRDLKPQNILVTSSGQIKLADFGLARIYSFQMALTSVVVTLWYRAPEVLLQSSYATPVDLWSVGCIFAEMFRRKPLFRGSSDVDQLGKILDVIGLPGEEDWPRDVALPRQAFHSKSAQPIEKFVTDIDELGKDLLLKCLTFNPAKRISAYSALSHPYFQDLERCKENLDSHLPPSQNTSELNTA
Sequence (P30281 whole entry partner): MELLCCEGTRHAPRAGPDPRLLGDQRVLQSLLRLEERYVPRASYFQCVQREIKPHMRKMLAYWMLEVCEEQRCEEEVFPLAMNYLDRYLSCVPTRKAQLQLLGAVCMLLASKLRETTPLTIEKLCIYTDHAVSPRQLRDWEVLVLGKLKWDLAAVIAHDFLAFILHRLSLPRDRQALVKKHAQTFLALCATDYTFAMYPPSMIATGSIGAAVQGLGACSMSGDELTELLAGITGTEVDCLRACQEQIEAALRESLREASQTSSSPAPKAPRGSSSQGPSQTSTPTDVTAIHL
Test: Kinase profiling, glass-fiber filter technology: CDK6/cyclinD3
Type: biochemical
Conditions: test concentration of 10^−6 M; read-out: CDK6/cyclinD3 inhibition score
Protocol: as §1, §2, §3, §4
as §5, with “CDK6/cyclinD3” for “CDK5/p35”

| inhibition at 1 µM [%] | SMILES |
| --- | --- |
| 10 to 30 | COCCOCCOc1cc2ncnc3c2cc1OCCCCCN(C)Cc1ccc(Br)cc1N3 [Int. 43] |

Target: Fgr human (Homo sapiens, UniProt P09769)
Sequence (P09769 whole entry): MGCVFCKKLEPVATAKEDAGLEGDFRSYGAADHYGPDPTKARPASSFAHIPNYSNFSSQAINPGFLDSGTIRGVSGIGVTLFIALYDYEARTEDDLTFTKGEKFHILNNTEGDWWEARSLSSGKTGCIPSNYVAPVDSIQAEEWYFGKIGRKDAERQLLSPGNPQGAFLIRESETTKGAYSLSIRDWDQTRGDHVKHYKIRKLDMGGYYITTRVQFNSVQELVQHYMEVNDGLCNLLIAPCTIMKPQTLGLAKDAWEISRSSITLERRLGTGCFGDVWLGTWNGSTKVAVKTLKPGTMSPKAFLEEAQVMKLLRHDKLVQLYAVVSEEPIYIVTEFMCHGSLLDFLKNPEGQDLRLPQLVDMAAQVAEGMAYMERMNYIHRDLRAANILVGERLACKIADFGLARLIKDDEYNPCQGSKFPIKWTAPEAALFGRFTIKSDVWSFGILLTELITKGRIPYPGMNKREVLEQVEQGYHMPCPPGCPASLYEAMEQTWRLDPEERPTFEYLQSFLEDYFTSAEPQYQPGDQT
Test: Kinase profiling, glass-fiber filter technology: Fgr
Type: biochemical
Conditions: test concentration of 10^−6 M; read-out: Fgr inhibition score
Protocol: as §1, §2, §3, §4
as §5, with “Fgr” for “CDK5/p35”, “poly(Glu, Tyr) 4:1,” for “histone H1,”, “Filtermat A” for “P30 filtermat”

| SMILES | inhibition at 1 µM [%] |
| --- | --- |
| CC(=O)OCCN(C)CCCOc1cc2ncnc3c2cc1OCCCNC(=O)[C@H](C)N(C)Cc1cc(F)c(Cl)cc1N3 [Compound 2] | 10 to 30 |
| CN1CCCCCOc2cc3c(ncnc3cc2OC[C@@H](O)CN2CCS(=O)(=O)CC2)Nc2cc(Br)ccc2C1 [Compound 12] | 60 to 80 |
| CN1CCCCCOc2cc3c(ncnc3cc2OCCCNC(=O)OC(C)(C)C)Nc2cc(Br)ccc2C1 [Compound 11] | 10 to 30 |
| CC(=O)N(CCO)CCCOc1cc2ncnc3c2cc1OCCCNC(=O)[C@H](C)N(C)Cc1cc(F)c(Cl)cc1N3 [Compound 5] | 10 to 30 |

The next lines start with the values.

| inhibition at 1 µM [%] | SMILES |
| --- | --- |
| 10 to 30 | C[C@H]1C(=O)NCCCOc2cc3c(ncnc3cc2OCCCN2CCN(C(=O)OC(C)(C)C)CC2)Nc2cc(Cl)c(F)cc2CN1C [Int. 16] |
| 30 to 60 | COCCOCCOc1cc2ncnc3c2cc1OCCCCCN(C)Cc1ccc(Br)cc1N3 [Int. 43] |
| 60 to 80 | CN1CCCCCOc2cc3c(ncnc3cc2OCCCN2CCS(=O)(=O)CC2)Nc2cc(Cl)c(F)cc2C1 [Compound 19] |
| 60 to 80 | CN1CCCCCOc2cc3c(ncnc3cc2OCCCNCCS(C)(=O)=O)Nc2cc(Br)ccc2C1 [Compound 14] |
| > 80 | C#Cc1ccc2c(c1)Nc1ncnc3cc(OCCCNCCS(C)(=O)=O)c(cc13)OCCCCCN(C)C2 [Compound 20] |
| > 80 | CC(=O)NCCNCCCOc1cc2ncnc3c2cc1OCCCCCN(C)Cc1ccc(Br)cc1N3 [Compound 13] |

Test system: not given
Test: not given
Conditions: not given

| melting point [°C] | SMILES |
| --- | --- |
| 136 | CC(=O)NCCN1CCN(CCCOc2cc3ncnc4c3cc2OCCCNC(=O)[C@H](C)N(C)Cc2cc(F)c(Cl)cc2N4)CC1 [Compound 6] |
| 112 | CC(=O)NCCNCCCOc1cc2ncnc3c2cc1OCCCNC(=O)[C@H](C)N(C)Cc1cc(F)c(Cl)cc1N3 [Compound 4] |
